The source of these data is patent publication US4593090A, “Novel nitrosourea compounds, method for preparing same, and pharmaceutical composition containing same” (Gogo Kimura, priority 1981, dated 1986).

Like-named read-outs stand apart in the source and are kept apart here.

The test system of data set [1] is Leukemia L1210. Nature of the data set: Activity against Leukemia L1210, intraperitoneal, increase in life span of mice. The class given is in vivo, female mice (BDF1 family). To be noted: for ED (maximum ILS) / ED30: Mus musculus, L1210, ip; for ED (maximum ILS): read-out: O.D. (optimum dosage); for ED30: read-out: ILS30; for Survivors after 60 days / Max. ILS % / Therapeutic ratio TR: ip; for Survivors after 60 days: 6-membered group; for Max. ILS %: 60-day observation, versus control; for Therapeutic ratio TR: O.D./ILS30. The method, boiled down:
(§1)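 Dosing started 24 h after ip implantation of 1×10^5 L1210 cells into groups of 6 female BDF1 mice, by ip or oral route daily for 5 consecutive days. Survival was followed for 60 days; increase in life span was scored against untreated mice, with therapeutic ratio from optimum dose over ILS30 dose.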

Data set [2] has as its system Leukemia L1210. Nature of the data set: Activity against Leukemia L1210, oral, increase in life span of mice. The class given is in vivo, female mice (BDF1 family). To be noted: for ED (maximum ILS) / ED30: Mus musculus, L1210; for ED (maximum ILS): read-out: O.D. (optimum dosage); for ED30: read-out: ILS30; for Survivors after 60 days / Max. ILS % / Therapeutic ratio TR: oral; for Survivors after 60 days: 6-membered group; for Max. ILS %: 60-day observation, versus control; for Therapeutic ratio TR: O.D./ILS30. In a few lines: as §1

Data set [3] relates to Ehrlich acites carcinoma. Nature of the data set: Growth-inhibiting effect against Ehrlich acites carcinoma. The class given is in vivo, male mice. As to conditions: 5 days; for response vs control in vivo at 3.2 mg/kg / response vs control in vivo at 12.5 mg/kg / response vs control in vivo at 25 mg/kg / response vs control in vivo at 100 mg/kg: Mus musculus, Ehrlich, 120 h; for response vs control in vivo at 3.2 mg/kg: 3.2 mg/kg/day ip; for response vs control in vivo at 12.5 mg/kg: 12.5 mg/kg/day ip. The method, boiled down:
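Activity graded from T/C% of total packed ascites cell volume on day 7 (treated vs untreated): - 100-66, + 65-41, ++ 40-11, +++ 10-0. Groups of 6 male mice bore 1×10^7 i.p.-implanted cells and received compound (1% Nikkol HCO-60) i.p. daily for 5 days from 24 hrs after implantation.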

The nature of data set [4]: Acute toxicity (LD50, Behrens-Karber method). Format: in vivo, ICR mice. To be noted: ip, mortality during 30 days; for LD50 at 720 h: mouse, in vivo. How it is done:
Test compounds, dissolved or suspended in 0.5% aqueous CMC, were each intraperitoneally administered to ICR mice in a dose of 0.1 ml per 10 g body weight. LD50 (mg/kg) value of each test compound was calculated from the mortality of mice during 30 days by the Behrens-Karber method.

The mark [5] stands for this setting: ip once a day for 5 successive days, daily dosage giving maximum increase of life span.
The mark [6] stands for this setting: ip once a day for 5 successive days, daily dosage increasing average survival days by 30%.
Setting [7] is: oral once a day for 5 successive days, daily dosage giving maximum increase of life span.
The mark [8] stands for this setting: oral once a day for 5 successive days, daily dosage increasing average survival days by 30%.
Setting [9] is: 25 mg/kg/day ip, read-out: Activity.
The mark [10] stands for this setting: 25 mg/kg/day ip, read-out: T/C %.
Setting [11] is: 100 mg/kg/day ip, read-out: Activity.
[12] abbreviates: 100 mg/kg/day ip, read-out: T/C %.

For the molecule `O=NN(CCCl)C(=O)N[C@@H]1O[C@H](CO)[C@@H](O)[C@H](O)[C@H]1O` [GANU, 3-(β-D-glucopyranosyl)-1-(2-chloroethyl)-1-nitrosourea, reference compound], the figures for the ED (maximum ILS) in data set [1] (setting [5]) and in data set [2] (setting [7]) were 6.2 mg/kg and 6.35 mg/kg, respectively. Further, the ED30 in data set [1] (setting [6]) amounted to 0.45 mg/kg; in data set [2] (setting [8]) it was 2.5 mg/kg. In addition, the results for the “Survivors after 60 days” value in data set [1] and in data set [2] were 4/6 and 0/6, respectively. Further, the results for the “Max. ILS %” value in data set [1] and in data set [2] were greater than 425% and 94%, respectively. The “Therapeutic ratio TR” value in data set [1] is recorded as 13.8; in data set [2], 2.54. In data set [3] (25.0 mg/kg/day ip), the “Activity (toxicity in words)” value is listed as “Toxic (6/6)”. In addition, the response vs control in vivo at 3.2 mg/kg in data set [3] (read-out: Activity) was 0 to 10%; in data set [3] (read-out: T/C %), 0%. Besides, the response vs control in vivo at 12.5 mg/kg was 0 to 10% in data set [3] (read-out: Activity) and 0% in data set [3] (read-out: T/C %). Besides, in data set [4], the LD50 at 720 h turned out to be 35 mg/kg.
Turning to `O=NN(CCCl)C(=O)N(C1CCCCC1)C1C(OCC2CCCO2)OC(CO)C(O)C1O` [Compound 75, 3-cyclohexyl-3-(tetrahydrofurfuryl α-D-glucopyranose-2-yl)-1-(2-chloroethyl)-1-nitrosourea], the ED (maximum ILS) in data set [1] (setting [5]) was found to be 160 mg/kg; in data set [2] (setting [7]), 200 mg/kg. Moreover, the results for the ED30 in data set [1] (setting [6]) and in data set [2] (setting [8]) were 3.67 mg/kg and 11.6 mg/kg, respectively. For the same molecule, the “Survivors after 60 days” value in data set [1] is given as 5/6; in data set [2], 4/6. The entries for the “Max. ILS %” value in data set [1] and in data set [2] were greater than 625% and greater than 450%, respectively. The “Therapeutic ratio TR” value is given as 43.6 in data set [1] and 17.2 in data set [2]. The response vs control in vivo at 25 mg/kg in data set [3] (setting [9]) is 0 to 10%; in data set [3] (setting [10]), 0%. Moreover, the response vs control in vivo at 100 mg/kg was 0 to 10% in data set [3] (setting [11]) and 0% in data set [3] (setting [12]). In data set [4], the LD50 at 720 h worked out at 505 mg/kg.
For “3-tert-butyl-3-(methoxy-2-n-butyl β-D-glucopyranose-6-yl)-1-(2-chloroethyl)-1-nitrosourea [Compound 178]”, the “O.D. (optimum dosage)” value in data set [1] (setting [5]) is 180 mg/kg; in data set [2] (setting [7]) it was 210 mg/kg. Also, the ILS30 in data set [1] (setting [6]) is given as 2.71 mg/kg; in data set [2] (setting [8]), 9.38 mg/kg. The “Survivors after 60 days” value in data set [1] is on record as 6/6; in data set [2], 5/6. The “Max. ILS %” value in data set [1] is greater than 700%; in data set [2], greater than 625%. Also, the results for the “Therapeutic ratio TR” value in data set [1] and in data set [2] were 66.5 and 22.4, respectively. Moreover, the Activity result in data set [3] (25 mg/kg/day ip) and in data set [3] (100 mg/kg/day ip) was “+++ (T/C% 10-0)” each time. In addition, the T/C % in data set [3] (25 mg/kg/day ip) and in data set [3] (100 mg/kg/day ip) was 0% each time. This molecule also came in with an LD50 in data set [4] of 570 mg/kg.
Regarding `COCCN(C(=O)N(CCCl)N=O)C1C(OC(C)COC)OC(CO)C(O)C1O` [Compound 71, 3-(2-methoxyethyl)-3-(1-methyl-2-methoxyethyl α-D-glucopyranose-2-yl)-1-(2-chloroethyl)-1-nitrosourea], the ED (maximum ILS) in data set [1] (setting [5]) was found to be 180 mg/kg; in data set [2] (setting [7]) it was 220 mg/kg. Also, the ED30 in data set [1] (setting [6]) came to 4.17 mg/kg; in data set [2] (setting [8]), 13.1 mg/kg. Moreover, the “Survivors after 60 days” value is given as 6/6 in data set [1] and 4/6 in data set [2]. The “Max. ILS %” value in data set [1] is given as greater than 700%; in data set [2], greater than 440%. Besides, the figures for the “Therapeutic ratio TR” value in data set [1] and in data set [2] were 43.2 and 16.8, respectively. Further, the response vs control in vivo at 25 mg/kg was 0 to 10% in data set [3] (setting [9]) and 0% in data set [3] (setting [10]). Further, the results for the response vs control in vivo at 100 mg/kg in data set [3] (setting [11]) and in data set [3] (setting [12]) were 0 to 10% and 0%, respectively. This molecule showed an LD50 at 720 h in data set [4] of 560 mg/kg.
For `COCC(C)N(C[C@H]1O[C@H](OCC(C)C)[C@H](O)[C@@H](O)[C@@H]1O)C(=O)N(CCCl)N=O` (stereo partly drawn) [Compound 16, 3-(1-methyl-2-methoxyethyl)-3-(isobutyl α-D-glucopyranose-6-yl)-1-(2-chloroethyl)-1-nitrosourea], the ED (maximum ILS) in data set [1] (setting [5]) worked out at 190 mg/kg; in data set [2] (setting [7]), 240 mg/kg. Moreover, the ED30 in data set [1] (setting [6]) was found to be 2.9 mg/kg; in data set [2] (setting [8]), 8.82 mg/kg. Also, the “Survivors after 60 days” value in data set [1] and in data set [2] was 6/6 throughout. The “Max. ILS %” value in data set [1] and in data set [2] was greater than 700% throughout. Moreover, the “Therapeutic ratio TR” value was found to be 65.6 in data set [1] and 27.2 in data set [2]. Also, the response vs control in vivo at 25 mg/kg was 0 to 10% in data set [3] (setting [9]) and 0% in data set [3] (setting [10]). Besides, the response vs control in vivo at 100 mg/kg in data set [3] (setting [11]) is 0 to 10%; in data set [3] (setting [12]), 0%. The same molecule registered an LD50 at 720 h in data set [4] of 580 mg/kg.
`COCC(C)N(C[C@H]1O[C@H](OC2CCCCC2)[C@H](O)[C@@H](O)[C@@H]1O)C(=O)N(CCCl)N=O` (stereo partly drawn) [Compound 42, 3-(1-methyl-2-methoxyethyl)-3-(cyclohexyl α-D-glucopyranose-6-yl)-1-(2-chloroethyl)-1-nitrosourea]: the ED (maximum ILS) worked out at 180 mg/kg in data set [1] (setting [5]) and 230 mg/kg in data set [2] (setting [7]). Also, the values for the ED30 in data set [1] (setting [6]) and in data set [2] (setting [8]) were 2.7 mg/kg and 7.88 mg/kg, respectively. The “Survivors after 60 days” value in data set [1] and in data set [2] was 6/6 in each case. Also, the “Max. ILS %” value in data set [1] and in data set [2] was greater than 700% each time. In addition, the “Therapeutic ratio TR” value is listed as 66.6 in data set [1] and 29.2 in data set [2]. Further, the response vs control in vivo at 25 mg/kg was 0 to 10% in data set [3] (setting [9]) and 0% in data set [3] (setting [10]). Further, the response vs control in vivo at 100 mg/kg was 0 to 10% in data set [3] (setting [11]) and 0% in data set [3] (setting [12]). The same molecule came in with an LD50 at 720 h in data set [4] of 595 mg/kg.
Consider `CC(C)CN(C[C@H]1O[C@H](OCC2CCCO2)[C@@H](O)[C@@H](O)[C@@H]1O)C(=O)N(CCCl)N=O` (stereo partly drawn) [Compound 136, 3-(isobuty)-3-(tetrahydrofurfuryl α-D-mannopyranose-6-yl)-1-(2-chloroethyl)-1-nitrosourea], for which the ED (maximum ILS) is 200 mg/kg in data set [1] (setting [5]) and 240 mg/kg in data set [2] (setting [7]). For the same molecule, the ED30 in data set [1] (setting [6]) was 2.94 mg/kg; in data set [2] (setting [8]) it was 10.1 mg/kg. For the same molecule, the “Survivors after 60 days” value in data set [1] was 6/6; in data set [2] it was 5/6. The “Max. ILS %” value in data set [1] is on record as greater than 700%; in data set [2], greater than 625%. Besides, the entries for the “Therapeutic ratio TR” value in data set [1] and in data set [2] were 68.0 and 23.8, respectively. For the same molecule, the response vs control in vivo at 25 mg/kg in data set [3] (setting [9]) is 0 to 10%; in data set [3] (setting [10]) it was 0%. For the same molecule, the response vs control in vivo at 100 mg/kg is 0 to 10% in data set [3] (setting [11]) and 0% in data set [3] (setting [12]). Also, the LD50 at 720 h in data set [4] was 600 mg/kg.
